Results taken from article PMC5190008, “BO-1055, a novel DNA cross-linking agent with remarkable low myelotoxicity shows potent activity in sarcoma models” (Oncotarget, 2016).

Experiments:
[1] = tested on: benign cells (mesenchymal stromal cells, fetal lung fibroblasts and myofibroblasts, hematopoietic progenitor cells, endothelial cells, MS-5); assay: Alamar blue cytotoxicity in benign cells; type: cell-based, human, murine; conditions: up to 10 μM, most of the tested cells
Experimental: We also examined the effect of BO-1055 in inhibiting the cell growth of different types of benign cells including human mesenchymal stromal cells, fetal lung fibroblasts and myofibroblasts, hematopoietic progenitor cells, bone marrow derived endothelial cells and human umbilical vein endothelial cells and murine mesenchymal stromal cells, MS-5 (murine).
(§1) AlamarBlue® assay (Invitrogen, Carlsbad, CA, USA) was performed to evaluate anti-proliferative activity of the drugs in cell lines and primary cells. Cells were plated in 96-well plates ([…] in 200 μL of medium). After 12 h, one of the previously mentioned drugs was added to each well at the specified concentration and incubated for 72 h. At the end of the incubation period, 20 μL of stock solution (0.312 mg/mL) of the Alamar Blue was added to each well. The absorbance was measured using the Synergy H1 hybrid multi-mode microplate reader (BioTek, USA). The drug effect was quantified as the percentage of control absorbance at 540 nm and 585 nm. Optical density was determined for 3 replicates per treatment condition and cell proliferation in drug-treated cells was normalized to their respective controls. All experiments were performed in triplicate.

[2] = tested on: CCRF-CEM/Taxol cells; design: method as in PMID 21106377; conditions: CCRF-CEM/Taxol ref 6; cited from earlier work
[3] = tested on: γH2AX in A673 cells; assay: γ-H2AX expression by flow cytometry; type: cell-based, human; conditions: A673 compared to hMSC and cord blood CD34+ cells, 3h
Experimental: Staining of γ-H2AX antigen was carried out following the manufacturer's protocol. Briefly, human sarcoma cells and human mesenchymal stem cells were treated with various concentrations of BO-1055 at 37°C. At 3h, the cultures were washed with 1 ml of cold PBS three times, detached with 0.05% trypsin, and cells were pelleted. The pelleted cells were resuspended with 0.2 ml Cytofix/Cytoperm solution (BD Bioscience), incubated at 4°C for 20 minutes, and then washed with 1 ml cold Perm/Wash solution (BD Bioscience) three times. After anti-human γ-H2AX antibody (BD Bioscience) staining, the specimens were subjected to flow cytometric analysis via a Calibur flow instrument (BD Bioscience).

[4] = tested on: OSA cells; assay: Alamar Blue cell proliferation assay; type: cell-based; conditions: Homo sapiens, 72 h drug exposure
Experimental: as §1
(§2) Data are presented as mean±S.E.M. of at least three independent experiments done in triplicate. The comparison of means between treated and control mice was performed using two-tailed T-test or ANOVA (for more than two groups) as implemented in GraphPad Prism (version 4; GraphPad Software). Graphpad Prism software was used to plot concentration-effect curves and determine the drug concentration that inhibited the growth of cell lines by 50% compared to the control (IC50). A p-value of 0.05 or less was considered significant. Combination index (CI) values, as calculated by CompuSyn software (Chou and Martin, 2007), were used to evaluate the interaction between BO-1055 and a second drug (Topotecan, SN38, Doxorubicin or PU-H71). The Chou-Talalay method was used to quantify the synergism (CI < 1), additive effect (CI = 1) and antagonism (CI > 1) of various drug combinations.

[5] = tested on: DSRCT cell lines; assay: Alamar Blue cell proliferation assay; type: cell-based; conditions: Homo sapiens
Experimental: as §1, §2

[6] = tested on: A673 cells; assay: Alamar Blue cell proliferation assay; type: cell-based; conditions: Homo sapiens; A673, 72 h drug exposure
Experimental: as §1, §2

[7] = tested on: U2OS cells; assay: Alamar Blue cell proliferation assay; type: cell-based; conditions: Homo sapiens, 72 h drug exposure
Experimental: as §1, §2

[8] = tested on: TC32 cells; assay: Alamar Blue cell proliferation assay; type: cell-based; conditions: Homo sapiens, TC-32; TC32, 72 h drug exposure
Experimental: as §1, §2

[9] = tested on: osteosarcoma cell lines; assay: Alamar Blue cell proliferation assay; type: cell-based; conditions: Homo sapiens
Experimental: as §1, §2

[10] = tested on: RH30 cells; assay: Alamar Blue cell proliferation assay; type: cell-based; conditions: Homo sapiens; RH30, 72 h drug exposure
Experimental: as §1, §2

[11] = tested on: A204 cells; assay: Alamar Blue cell proliferation assay; type: cell-based; conditions: Homo sapiens; A204, 72 h drug exposure
Experimental: as §1, §2

[12] = tested on: H526 cells; assay: Alamar Blue cell proliferation assay; type: cell-based; conditions: Homo sapiens, NCI-H526; H526 (small cell lung cancer)
Experimental: as §1, §2

[13] = tested on: SAOS cells; assay: Alamar Blue cell proliferation assay; type: cell-based; conditions: Homo sapiens, 72 h drug exposure
Experimental: as §1, §2

[14] = tested on: cord blood CD34+ cells; assay: Comet assay; type: cell-based, human; conditions: 3h
Experimental: We used comet assay, which includes single cell gel electrophoresis to assess DNA breaks when exposed to radiation or DNA damaging agents. […] Olive moment (micrometers), a product of tail DNA% and the distance between the centroids of head and tail, is an accurate parameter of DNA damage. […] Gamma-H2AX (γH2AX) phosphorylation is the initial step in DNA damage response following double stranded breaks and is responsible for recruiting DNA repair proteins.
Comet assay was performed according to the protocol described earlier. Cells were treated with BO-1055 at 2μM concentration for 3h, or immediately after exposure to 8Gy radiation after which they were isolated and mixed with 1% low melting point agarose in a tube. The cells in agarose were transferred to slides coated with normal melting point agarose. The agarose-immobilized cells were lysed in alkaline solution and the agarose trapped DNA was electrophoresed. DNA was stained with ethidium bromide and image acquisition was done immediately. DNA damage quantification was performed using OpenComet v1.3, an open-source software plugin in Image J 1.47v software (NIH, USA) for automated analysis. Olive moment, which is the product of tail DNA% and the distance between the intensity-weighted centroids of head and tail was taken from the output for analysis.

In the case of `CN(C)CCNC(=O)c1cccc(NC(=O)Nc2ccc(N(CCCl)CCCl)cc2)c1` [BO-1055], the “cytotoxicity against benign cells” value [1] is given as “minimal to no cytotoxicity”, the “resistance of CCRF-CEM/Taxol cells” value [2] is given as 9.4 fold and the γH2AX level [3] is given as “significantly elevated”. The IC50 [4] was greater than 10000 nM, the IC50 [5] was 2000 to 3000 nM and the IC50 [6] was 520 nM. For the same molecule, the IC50 [7] was greater than 10000 nM, the IC50 [8] was 600 nM and the IC50 [9] was greater than 10000 nM. For the same molecule, the IC50 [10] was 240 nM, the IC50 [11] was 80 nM and the IC50 [12] was 250 nM. The IC50 [13] was greater than 10000 nM and the “olive moment relative to radiation (XRT, 8Gy)” value [14] was “relatively less”.
